# From patent publication US11325936B2, “Sialidase inhibitors and preparation thereof” (The Regents of the University of California, priority 2017, dated 2022)
# Like-named read-outs stand apart in the source and are kept apart here.
# Experiments:
# SpNanA [1] = molecular target: T1, SpNanA (Streptococcus pneumoniae, UniProt P62575); assay: Sialidase inhibition assay (Example 4); type: biochemical; details: for inhibition at 100 µM: pH 6, read-out: Percentage inhibition (%) against SpNanA, 0.1 mM of each inhibitor, substrate Neu5Acα2-3GalβpNP 0.3 mM, pH 6.0
# SpNanB [2] = molecular target: T2, SpNanB (Streptococcus pneumoniae serotype 4, UniProt Q54727, E68D/K536E/K577E/N393D/S59P); assay: Sialidase inhibition assay (Example 4); type: biochemical; details: pH 6, read-out: Percentage inhibition (%) against SpNanB
# SpNanC [3] = molecular target: T3, SpNanC (Streptococcus pneumoniae, UniProt A0A0H2UQE4); assay: Sialidase inhibition assay (Example 4); type: biochemical; details: pH 6.5, read-out: Percentage inhibition (%) against SpNanC
# AuSialidase [4] = molecular target: T4, AuSialidase (Paenarthrobacter ureafaciens, UniProt Q5W7Q2); assay: Sialidase inhibition assay (Example 4); type: biochemical, Arthrobacter ureafaciens; details: pH 5.5, read-out: Percentage inhibition (%) against AuSialidase, 0.1 mM of each inhibitor, substrate Neu5Acα2-3GalβpNP 0.3 mM
# T4 sequence (Q5W7Q2 39-990): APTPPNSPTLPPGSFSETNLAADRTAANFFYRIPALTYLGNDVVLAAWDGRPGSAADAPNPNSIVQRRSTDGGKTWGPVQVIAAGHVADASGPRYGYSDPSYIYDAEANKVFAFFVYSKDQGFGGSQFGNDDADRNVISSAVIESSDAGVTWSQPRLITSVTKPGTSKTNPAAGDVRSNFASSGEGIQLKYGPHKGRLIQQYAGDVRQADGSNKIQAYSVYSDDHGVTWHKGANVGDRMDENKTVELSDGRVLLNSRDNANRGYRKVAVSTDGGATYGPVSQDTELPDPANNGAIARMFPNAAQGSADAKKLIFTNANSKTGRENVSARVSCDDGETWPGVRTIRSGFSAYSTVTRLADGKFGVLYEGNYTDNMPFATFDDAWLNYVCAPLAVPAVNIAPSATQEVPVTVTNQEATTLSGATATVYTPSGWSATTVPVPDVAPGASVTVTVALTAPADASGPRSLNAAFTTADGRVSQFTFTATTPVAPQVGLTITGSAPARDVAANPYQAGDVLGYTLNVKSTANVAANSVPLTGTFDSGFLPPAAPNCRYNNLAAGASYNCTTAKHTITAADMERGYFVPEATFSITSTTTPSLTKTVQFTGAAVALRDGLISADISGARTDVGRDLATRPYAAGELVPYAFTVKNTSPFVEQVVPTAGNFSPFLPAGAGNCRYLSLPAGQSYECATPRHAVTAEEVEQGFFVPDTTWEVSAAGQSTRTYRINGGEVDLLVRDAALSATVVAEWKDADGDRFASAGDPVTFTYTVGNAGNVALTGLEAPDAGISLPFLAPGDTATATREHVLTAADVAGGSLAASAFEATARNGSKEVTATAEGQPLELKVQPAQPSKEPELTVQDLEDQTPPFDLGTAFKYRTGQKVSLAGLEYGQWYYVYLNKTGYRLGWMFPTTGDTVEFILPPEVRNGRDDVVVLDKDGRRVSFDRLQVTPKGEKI
# Description: (§1) The assay conditions varied for different sialidases as described below: SpNanA (0.0015 μg), NaOAc buffer (100 mM, pH 6.0); SpNanB (0.003 μg), NaOAc buffer (100 mM, pH 6.0); SpNanC (0.02 μg), MES buffer (100 mM, pH 6.5); AuSialidase (1.0 mU), NaOAc buffer (100 mM, pH 5.5); CpNanI (2.0 mU), MES buffer (100 mM, pH 5.0); CpNanH (0.5 mU), MES buffer (100 mM, pH 5.0); VcSialidase (1.5 mU), NaCl (150 mM), CaCl2) (10 mM), NaOAc buffer (100 mM, pH 5.5); PmST1 (34.4 μg), NaOAc buffer (100 mM, pH 5.5); BiNanH2, NaOAc buffer (100 mM, pH 5.0); hNEU2 (22.0 μg), MES buffer (100 mM, pH 5.0). The reactions were incubated for 30 min at 37° C., and were stopped by adding CAPS buffer (N-cyclohexyl-3-aminopropane sulfonic acid, 40 μL, 0.5 M, pH 10.5). The amount of the para-nitrophenolate formed was determined by measuring the A405 nm Of the reaction mixtures using a microplate reader.
# (§2) The percentage inhibitions were determined using a concentration of 0.1 mM of each inhibitor, with reactions without inhibitors as controls. […] The values of IC50 were calculated by the software Grafit 5.0.
# CpNanI [5] = type: biochemical, Clostridium perfringens; details: 0.1 mM of each inhibitor; substrate Neu5Acα2-3GalβpNP 0.3 mM; pH 5.0
# CpNanH = CpNanH (Clostridium perfringens, UniProt P10481); assay: biochemical; details: pH 5.0; read-out: Percentage inhibition (%) against CpNanH
# VcSialidase [6] = molecular target: T5, VcSialidase (Vibrio cholerae serotype O1, UniProt P0C6E9); assay: biochemical; details: pH 5.5, read-out: Percentage inhibition (%) against VcSialidase, 0.1 mM of each inhibitor, substrate Neu5Acα2-3GalβpNP 0.3 mM
# PmST1 [7] = molecular target: T6, PmST1 (Pasteurella multocida, UniProt Q15KI8); assay: Sialidase inhibition assay (Example 4); type: biochemical; details: 0.1 mM of each inhibitor; substrate Neu5Acα2-3GalβpNP 0.3 mM; pH 5.5; read-out: Percentage inhibition (%) against PmST1
# Description: as §1, §2
# BiNanH2 [8] = molecular target: T7, BiNanH2 (Bifidobacterium longum subsp. infantis, UniProt A0ACD7UU12); assay: Sialidase inhibition assay (Example 4); type: biochemical; details: pH 5, read-out: Percentage inhibition (%) against BiNanH2, 0.1 mM of each inhibitor, substrate Neu5Acα2-3GalβpNP 0.3 mM
# hNEU2 = hNEU2 (Homo sapiens, UniProt Q9Y3R4); assay: Sialidase inhibition assay (Example 4); type: biochemical; details: pH 5, 0.1 mM of each inhibitor, substrate Neu5Acα2-3GalβpNP 0.3 mM, read-out: Percentage inhibition (%) against hNEU2
# SpNanA [9] = molecular target: T1, SpNanA; assay: Sialidase inhibition assay (Example 7); type: biochemical; details: pH 6, read-out: Percentage inhibition (%) against SpNanA
# SpNanB [10] = molecular target: T2, SpNanB; assay: Sialidase inhibition assay (Example 7); type: biochemical; details: pH 6, read-out: Percentage inhibition (%) against SpNanB
# AuSialidase [11] = molecular target: T4, AuSialidase; assay: Sialidase inhibition assay (Example 7); type: biochemical, Arthrobacter ureafaciens; details: 1 mM of each inhibitor; substrate Neu5Acα2-3GalβpNP 0.3 mM; pH 5.5; read-out: Percentage inhibition (%) against AuSialidase
# CpNanI [12] = type: biochemical, Clostridium perfringens; details: 1 mM of each inhibitor; substrate Neu5Acα2-3GalβpNP 0.3 mM; pH 5.0
# VcSialidase [13] = molecular target: T5, VcSialidase; assay: Sialidase inhibition assay (Example 7); type: biochemical; details: pH 5.5, read-out: Percentage inhibition (%) against VcSialidase
# PmST1 [14] = molecular target: T6, PmST1; assay: Sialidase inhibition assay (Example 7); type: biochemical; details: 1 mM of each inhibitor; substrate Neu5Acα2-3GalβpNP 0.3 mM; CMP 0.4 mM; pH 5.5; read-out: Percentage inhibition (%) against PmST1
# BiNanH2 [15] = molecular target: T7, BiNanH2; assay: Sialidase inhibition assay (Example 7); type: biochemical; details: pH 5, read-out: Percentage inhibition (%) against BiNanH2
# SpNanC [16] = molecular target: T3, SpNanC; assay: Sialidase inhibition assay (Example 7); details: pH 6.5, read-out: Percentage inhibition (%) against SpNanC
# T3 sequence (A0A0H2UQE4 entry or part of it): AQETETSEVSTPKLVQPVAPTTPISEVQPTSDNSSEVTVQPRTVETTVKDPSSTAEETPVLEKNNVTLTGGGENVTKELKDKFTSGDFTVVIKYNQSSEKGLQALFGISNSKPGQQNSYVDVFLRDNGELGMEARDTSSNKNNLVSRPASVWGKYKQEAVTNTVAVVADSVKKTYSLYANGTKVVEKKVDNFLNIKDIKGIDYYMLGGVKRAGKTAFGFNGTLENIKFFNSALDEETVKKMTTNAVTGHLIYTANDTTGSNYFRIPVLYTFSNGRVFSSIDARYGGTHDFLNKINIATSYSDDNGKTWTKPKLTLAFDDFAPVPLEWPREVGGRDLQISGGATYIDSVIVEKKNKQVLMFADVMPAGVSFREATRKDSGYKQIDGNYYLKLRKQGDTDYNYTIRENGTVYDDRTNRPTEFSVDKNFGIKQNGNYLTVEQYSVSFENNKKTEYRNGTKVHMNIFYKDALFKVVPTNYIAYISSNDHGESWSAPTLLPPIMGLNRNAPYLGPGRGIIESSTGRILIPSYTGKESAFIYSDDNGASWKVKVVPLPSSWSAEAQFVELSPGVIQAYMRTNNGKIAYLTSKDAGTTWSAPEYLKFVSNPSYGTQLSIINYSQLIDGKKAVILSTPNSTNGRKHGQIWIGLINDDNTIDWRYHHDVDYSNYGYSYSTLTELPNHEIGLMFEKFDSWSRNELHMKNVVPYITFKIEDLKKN
# T5 sequence (P0C6E9 25-781): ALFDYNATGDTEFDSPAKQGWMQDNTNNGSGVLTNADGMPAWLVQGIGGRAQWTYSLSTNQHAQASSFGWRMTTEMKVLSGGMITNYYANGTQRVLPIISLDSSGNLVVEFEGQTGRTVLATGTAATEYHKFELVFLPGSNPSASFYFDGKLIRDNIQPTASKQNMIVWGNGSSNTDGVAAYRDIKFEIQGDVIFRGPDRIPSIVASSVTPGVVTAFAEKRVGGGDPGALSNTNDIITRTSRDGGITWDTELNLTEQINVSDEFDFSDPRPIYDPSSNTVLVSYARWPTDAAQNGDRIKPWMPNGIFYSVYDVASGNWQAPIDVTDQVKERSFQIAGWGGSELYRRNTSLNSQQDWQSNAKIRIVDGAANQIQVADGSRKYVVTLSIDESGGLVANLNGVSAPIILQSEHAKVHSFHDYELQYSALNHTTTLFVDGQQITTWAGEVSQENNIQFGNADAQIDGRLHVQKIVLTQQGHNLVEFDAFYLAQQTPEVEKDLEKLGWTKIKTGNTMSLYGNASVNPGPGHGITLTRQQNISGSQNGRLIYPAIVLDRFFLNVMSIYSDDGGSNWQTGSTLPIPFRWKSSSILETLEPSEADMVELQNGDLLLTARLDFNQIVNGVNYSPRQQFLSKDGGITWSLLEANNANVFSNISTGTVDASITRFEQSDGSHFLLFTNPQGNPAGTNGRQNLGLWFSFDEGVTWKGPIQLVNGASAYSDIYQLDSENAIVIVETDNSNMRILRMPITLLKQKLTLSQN
# CpNanH, sequence (P10481 whole entry, looked up): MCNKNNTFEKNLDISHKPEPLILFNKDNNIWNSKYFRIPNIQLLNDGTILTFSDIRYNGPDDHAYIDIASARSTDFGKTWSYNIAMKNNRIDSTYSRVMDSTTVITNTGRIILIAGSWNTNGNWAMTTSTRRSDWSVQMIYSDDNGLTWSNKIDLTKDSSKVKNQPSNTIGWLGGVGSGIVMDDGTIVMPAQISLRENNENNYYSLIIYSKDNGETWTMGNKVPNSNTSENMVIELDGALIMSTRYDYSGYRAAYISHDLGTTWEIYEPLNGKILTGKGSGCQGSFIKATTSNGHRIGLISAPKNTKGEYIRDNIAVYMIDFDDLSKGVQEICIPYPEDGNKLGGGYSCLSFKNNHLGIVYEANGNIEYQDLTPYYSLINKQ
# hNEU2, sequence (Q9Y3R4 whole entry): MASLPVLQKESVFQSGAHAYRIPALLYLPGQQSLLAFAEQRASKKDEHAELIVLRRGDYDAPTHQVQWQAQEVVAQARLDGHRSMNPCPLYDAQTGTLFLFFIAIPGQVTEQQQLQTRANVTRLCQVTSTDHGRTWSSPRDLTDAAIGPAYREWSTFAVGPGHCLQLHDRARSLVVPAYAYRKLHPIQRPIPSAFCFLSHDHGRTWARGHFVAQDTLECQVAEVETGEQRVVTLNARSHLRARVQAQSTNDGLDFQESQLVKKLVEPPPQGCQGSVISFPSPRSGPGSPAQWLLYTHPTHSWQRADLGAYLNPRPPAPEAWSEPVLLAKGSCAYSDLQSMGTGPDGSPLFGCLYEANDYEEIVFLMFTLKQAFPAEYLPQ
# T2 sequence (Q54727 30-697 S59P/E68D/N393D/K536E/K577E): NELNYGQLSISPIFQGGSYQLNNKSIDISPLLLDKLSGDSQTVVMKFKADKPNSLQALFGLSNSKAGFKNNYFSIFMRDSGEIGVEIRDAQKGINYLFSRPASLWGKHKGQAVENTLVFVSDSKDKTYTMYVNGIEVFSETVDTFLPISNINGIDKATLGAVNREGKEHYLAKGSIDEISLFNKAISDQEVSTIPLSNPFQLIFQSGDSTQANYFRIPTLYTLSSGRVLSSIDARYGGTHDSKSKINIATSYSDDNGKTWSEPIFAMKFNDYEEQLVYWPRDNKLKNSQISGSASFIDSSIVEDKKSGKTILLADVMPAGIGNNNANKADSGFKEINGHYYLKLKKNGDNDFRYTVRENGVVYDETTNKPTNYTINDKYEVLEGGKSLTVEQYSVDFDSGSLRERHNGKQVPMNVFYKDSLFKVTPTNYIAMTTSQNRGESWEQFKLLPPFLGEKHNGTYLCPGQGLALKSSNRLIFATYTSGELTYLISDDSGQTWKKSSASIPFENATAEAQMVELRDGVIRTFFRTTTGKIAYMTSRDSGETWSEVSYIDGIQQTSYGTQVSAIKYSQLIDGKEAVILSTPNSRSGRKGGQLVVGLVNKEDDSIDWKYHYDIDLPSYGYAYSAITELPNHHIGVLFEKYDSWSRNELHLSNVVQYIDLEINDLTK
# T6 sequence (Q15KI8 entry or part of it): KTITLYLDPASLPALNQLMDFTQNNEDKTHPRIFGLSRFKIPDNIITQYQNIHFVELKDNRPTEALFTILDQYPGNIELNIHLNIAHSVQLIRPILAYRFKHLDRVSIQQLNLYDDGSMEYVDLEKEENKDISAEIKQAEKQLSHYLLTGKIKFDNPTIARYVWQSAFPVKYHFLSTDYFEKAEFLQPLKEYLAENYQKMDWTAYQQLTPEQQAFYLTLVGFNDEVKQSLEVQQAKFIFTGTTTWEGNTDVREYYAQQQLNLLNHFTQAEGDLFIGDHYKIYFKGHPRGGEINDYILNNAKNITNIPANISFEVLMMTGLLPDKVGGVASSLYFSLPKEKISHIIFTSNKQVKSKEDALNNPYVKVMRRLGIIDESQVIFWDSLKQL
# T1 sequence (P62575 54-1006): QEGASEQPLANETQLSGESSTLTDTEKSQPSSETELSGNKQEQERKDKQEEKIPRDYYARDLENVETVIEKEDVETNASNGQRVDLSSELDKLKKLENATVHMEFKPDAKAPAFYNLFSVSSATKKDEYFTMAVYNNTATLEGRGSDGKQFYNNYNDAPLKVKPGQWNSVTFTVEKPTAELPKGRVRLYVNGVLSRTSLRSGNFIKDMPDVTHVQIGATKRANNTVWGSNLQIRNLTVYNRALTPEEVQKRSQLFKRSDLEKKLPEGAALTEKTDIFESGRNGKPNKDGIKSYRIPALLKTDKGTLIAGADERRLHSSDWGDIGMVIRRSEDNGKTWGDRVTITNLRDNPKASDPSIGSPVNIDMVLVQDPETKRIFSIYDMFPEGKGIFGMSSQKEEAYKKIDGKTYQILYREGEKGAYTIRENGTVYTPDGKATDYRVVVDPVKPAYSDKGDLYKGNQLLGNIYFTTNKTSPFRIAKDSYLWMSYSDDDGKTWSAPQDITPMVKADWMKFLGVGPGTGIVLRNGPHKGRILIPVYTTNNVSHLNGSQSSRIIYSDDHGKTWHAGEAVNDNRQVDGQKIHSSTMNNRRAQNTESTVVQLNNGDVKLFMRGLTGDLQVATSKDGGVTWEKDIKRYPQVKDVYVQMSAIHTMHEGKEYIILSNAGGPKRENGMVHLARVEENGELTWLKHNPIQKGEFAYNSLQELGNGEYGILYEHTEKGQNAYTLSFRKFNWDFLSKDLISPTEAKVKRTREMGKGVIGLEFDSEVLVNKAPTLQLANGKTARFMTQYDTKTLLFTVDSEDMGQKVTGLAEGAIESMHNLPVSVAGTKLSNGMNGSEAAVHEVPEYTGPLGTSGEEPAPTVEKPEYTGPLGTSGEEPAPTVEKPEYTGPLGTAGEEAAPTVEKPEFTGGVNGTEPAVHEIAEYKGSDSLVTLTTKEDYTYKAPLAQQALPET
# T7 sequence (A0ACD7UU12 entry or part of it): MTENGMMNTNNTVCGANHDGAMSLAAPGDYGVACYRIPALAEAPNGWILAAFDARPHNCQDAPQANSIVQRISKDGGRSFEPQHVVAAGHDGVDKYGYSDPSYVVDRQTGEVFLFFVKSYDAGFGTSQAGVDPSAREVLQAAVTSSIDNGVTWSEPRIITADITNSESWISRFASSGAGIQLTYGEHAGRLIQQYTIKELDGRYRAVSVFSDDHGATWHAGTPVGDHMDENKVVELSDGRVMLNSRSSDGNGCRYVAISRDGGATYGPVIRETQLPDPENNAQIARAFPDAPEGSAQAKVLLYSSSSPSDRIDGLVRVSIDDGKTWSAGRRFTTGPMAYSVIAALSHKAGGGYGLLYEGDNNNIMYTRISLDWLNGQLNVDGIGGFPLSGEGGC
SMILES,IC50 (SpNanA [1]),inhibition at 100 µM (SpNanA [1]),inhibition at 100 µM (SpNanB [2]),inhibition at 100 µM (SpNanC [3]),inhibition at 100 µM (AuSialidase [4]),Percentage inhibition (%) against CpNanI (CpNanI [5]),inhibition at 100 µM (CpNanH),inhibition at 100 µM (VcSialidase [6]),inhibition at 100 µM (PmST1 [7]),inhibition at 100 µM (BiNanH2 [8]),inhibition at 100 µM (hNEU2),inhibition at 1000 µM (SpNanA [9]),inhibition at 1000 µM (SpNanB [10]),inhibition at 1000 µM (AuSialidase [11]),Percentage inhibition (%) against CpNanI (CpNanI [12]),inhibition at 1000 µM (VcSialidase [13]),inhibition at 1000 µM (PmST1 [14]),inhibition at 1000 µM (BiNanH2 [15]),inhibition at 1000 µM (SpNanC [16])
"CC(=O)NC[C@@H](O)[C@@H](O)[C@@H]1OC(C(=O)O)=C[C@H](O)[C@H]1NC(C)=O [compound 9, 5,9-Diacetamido-2,6-anhydro-3,5,9-trideoxy-D-glycero-D-galacto-non-2-enonic acid]",11 ± 0.2 µM,86%,4%,8%,60%,63%,1%,45%,19%,69%,27%,,,,,,,,
"O=C(Cc1ccccc1)N[C@H]1[C@H]([C@H](O)[C@H](O)CO)OC(C(=O)O)=C[C@@H]1O [compound 15, 2,6-Anhydro-3,5-dideoxy-5-phenylacetamido-D-glycero-D-galacto-non-2-enonic acid]",,2%,5%,12%,13%,19%,8%,5%,8%,17%,81%,,,,,,,,
"CC(=O)N[C@@H]1C(O)C=C(C(=O)O)OC1C[C@H](O)CO (stereo partly drawn) [compound 10, 5-Acetamido-2,6-anhydro-3,5,7-trideoxy-D-glycero-D-galacto-non-2-enonic acid]",10.7 ± 0.4 µM,89%,2%,5%,85%,57%,11%,40%,15%,30%,42%,,,,,,,,
"O=C(CO)N[C@@H]1C(O)C=C(C(=O)O)OC1[C@H](O)[C@H](O)CO (stereo partly drawn) [compound 7, 2,6-Anhydro-3,5-dideoxy-5-glycolylamido-D-glycero-D-galacto-non-2-enonic acid]",,14%,4%,17%,47%,20%,9%,,2%,19%,> 50%,,,,,,,,
"CC(=O)N[C@H]1[C@H]([C@H](O)[C@H](O)CO)OC(C(=O)O)=C[C@@H]1O [compound 6, 5-Acetamido-2,6-anhydro-3,5-dideoxy-D-glycero-D-galacto-non-2-enonic acid, reference compound]",,,4%,11%,,,2%,,2%,> 50%,,98.9 ± 1.8%,26.1 ± 1%,99.6 ± 0.6%,93.3 ± 3.8%,98.8 ± 0.1%,15.8 ± 0.1%,95.3 ± 0.2%,9 ± 3.5%
"CC(=O)N[C@@H]1C(O)C=C(C(=O)O)OC1[C@H](O)[C@H](O)CNC(=O)C1CC1 (stereo partly drawn) [compound 13, 5-Acetamido-2,6-anhydro-9-cyclopropylcarboxamido-3,5,9-trideoxy-D-glycero-D-galacto-non-2-enonic acid]",6.8 ± 0.2 µM,91%,2%,16%,61%,51%,7%,40%,3%,78%,17%,,,,,,,,
"CCCCC(=O)NC[C@@H](O)[C@@H](O)[C@@H]1OC(C(=O)O)=C[C@H](O)[C@H]1NC(C)=O [compound 12, 5-Acetamido-2,6-anhydro-3,5,9-trideoxy-9-valeramido-D-glycero-D-galacto-non-2-enonic acid]",10.5 ± 0.5 µM,85%,3%,11%,40%,40%,3%,43%,8%,71%,19%,,,,,,,,
